Test results published in the supplement of paper PMC10307832.

How the values were obtained:
Test in all cases: relative viability (nuclei count vs DMSO), 5 days (fraction); higher = more cells survive
NCI-H838 = system: NCI-H838
In short: (§1)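 Each reported value is a median over duplicate plates. It expresses relative viability: treated-well nuclei count divided by vehicle-well nuclei count. Lung cancer cell lines in 1536-well plates were dosed by pin tool a day after seeding, alone with one drug or with a fixed anchor-drug dose plus five library-drug doses (not always all listed) in √10 steps, and nuclei were counted after 5 days.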

NCI-H650 = system: NCI-H650
In short: as §1

HCC-44 = system: HCC-44
In short: as §1

NCI-H358 = system: NCI-H358
In short: as §1

LC-2-ad = system: LC-2-ad
In short: as §1

NCI-H1355 = system: NCI-H1355
In short: as §1

NCI-H1915 = system: NCI-H1915
In short: as §1

HCC-15 = system: HCC-15
In short: as §1

NCI-H2347 = system: NCI-H2347
In short: as §1

ABC-1 = system: ABC-1
In short: as §1

LU99A = system: LU99A
In short: as §1

UMC-11 = system: UMC-11
In short: as §1

NCI-H2023 = system: NCI-H2023
In short: as §1

HOP-62 = system: HOP-62
In short: as §1

NCI-H2085 = system: NCI-H2085
In short: as §1

PC-14 = system: PC-14
In short: as §1

NCI-H1651 = system: NCI-H1651
In short: as §1

COR-L23 = system: COR-L23
In short: as §1

NCI-H1993 = system: NCI-H1993
In short: as §1

SW 1573 = system: SW 1573
In short: as §1

NCI-H2126 = system: NCI-H2126
In short: as §1

HARA = system: HARA
In short: as §1

EPLC-272H = system: EPLC-272H
In short: as §1

## COc1nc(C)cnc1NS(=O)(=O)c1cccnc1-c1ccc(-c2nnco2)cc1 [Zibotentan] + Nc1ncn([C@H]2C[C@H](O)[C@@H](CO)O2)c(=O)n1 [Decitabine] (partner 2 µM)
NCI-H838; first compound 0.08 µM
  relative viability: 0.455
NCI-H838; first compound 0.253 µM
  relative viability: 0.414
NCI-H838; first compound 0.8 µM
  relative viability: 0.545
NCI-H838; first compound 2.53 µM
  relative viability: 0.461
NCI-H650; first compound 0.08 µM
  relative viability: 0.298
NCI-H650; first compound 0.253 µM
  relative viability: 0.297
NCI-H650; first compound 0.8 µM
  relative viability: 0.352
NCI-H650; first compound 2.53 µM
  relative viability: 0.311
HCC-44; first compound 0.08 µM
  relative viability: 1.01
HCC-44; first compound 0.253 µM
  relative viability: 0.924
HCC-44; first compound 0.8 µM
  relative viability: 1.01
HCC-44; first compound 2.53 µM
  relative viability: 0.988
NCI-H358; first compound 0.08 µM
  relative viability: 0.196
NCI-H358; first compound 0.253 µM
  relative viability: 0.139
NCI-H358; first compound 2.53 µM
  relative viability: 0.222
LC-2-ad; first compound 0.08 µM
  relative viability: 0.66
LC-2-ad; first compound 0.253 µM
  relative viability: 0.816
LC-2-ad; first compound 0.8 µM
  relative viability: 0.718
LC-2-ad; first compound 2.53 µM
  relative viability: 0.781
NCI-H1355; first compound 0.08 µM
  relative viability: 0.346
NCI-H1355; first compound 0.253 µM
  relative viability: 0.337
NCI-H1355; first compound 0.8 µM
  relative viability: 0.368
NCI-H1355; first compound 2.53 µM
  relative viability: 0.35
NCI-H1915; first compound 0.08 µM
  relative viability: 0.248
NCI-H1915; first compound 0.253 µM
  relative viability: 0.262
NCI-H1915; first compound 0.8 µM
  relative viability: 0.27
NCI-H1915; first compound 2.53 µM
  relative viability: 0.257
HCC-15; first compound 0.08 µM
  relative viability: 0.607
HCC-15; first compound 0.253 µM
  relative viability: 0.538
HCC-15; first compound 0.8 µM
  relative viability: 0.727
HCC-15; first compound 2.53 µM
  relative viability: 0.696
NCI-H2347; first compound 0.08 µM
  relative viability: 0.583
NCI-H2347; first compound 0.253 µM
  relative viability: 0.586
NCI-H2347; first compound 0.8 µM
  relative viability: 0.744
NCI-H2347; first compound 2.53 µM
  relative viability: 0.604
ABC-1; first compound 0.08 µM
  relative viability: 0.829
ABC-1; first compound 0.253 µM
  relative viability: 1.12
ABC-1; first compound 0.8 µM
  relative viability: 0.939
ABC-1; first compound 2.53 µM
  relative viability: 1.06
LU99A; first compound 0.08 µM
  relative viability: 0.933
LU99A; first compound 0.253 µM
  relative viability: 0.848
LU99A; first compound 0.8 µM
  relative viability: 0.95
LU99A; first compound 2.53 µM
  relative viability: 1.06
UMC-11; first compound 0.08 µM
  relative viability: 0.576
UMC-11; first compound 0.253 µM
  relative viability: 0.532
UMC-11; first compound 0.8 µM
  relative viability: 0.634
UMC-11; first compound 2.53 µM
  relative viability: 0.697
NCI-H2023; first compound 0.08 µM
  relative viability: 0.245
NCI-H2023; first compound 0.253 µM
  relative viability: 0.211
NCI-H2023; first compound 0.8 µM
  relative viability: 0.203
NCI-H2023; first compound 2.53 µM
  relative viability: 0.214
HOP-62; first compound 0.08 µM
  relative viability: 0.169
HOP-62; first compound 0.253 µM
  relative viability: 0.19
HOP-62; first compound 0.8 µM
  relative viability: 0.209
HOP-62; first compound 2.53 µM
  relative viability: 0.207
NCI-H2085; first compound 0.08 µM
  relative viability: 0.566
NCI-H2085; first compound 0.253 µM
  relative viability: 0.54
NCI-H2085; first compound 0.8 µM
  relative viability: 0.592
NCI-H2085; first compound 2.53 µM
  relative viability: 0.56
PC-14; first compound 0.08 µM
  relative viability: 0.267
PC-14; first compound 0.253 µM
  relative viability: 0.198
PC-14; first compound 0.8 µM
  relative viability: 0.287
PC-14; first compound 2.53 µM
  relative viability: 0.265
NCI-H1651; first compound 0.08 µM
  relative viability: 0.657
NCI-H1651; first compound 0.253 µM
  relative viability: 0.607
NCI-H1651; first compound 0.8 µM
  relative viability: 0.567
NCI-H1651; first compound 2.53 µM
  relative viability: 0.516
COR-L23; first compound 0.08 µM
  relative viability: 0.506
COR-L23; first compound 0.253 µM
  relative viability: 0.402
COR-L23; first compound 0.8 µM
  relative viability: 0.573
COR-L23; first compound 2.53 µM
  relative viability: 0.455
NCI-H1993; first compound 0.08 µM
  relative viability: 0.639
NCI-H1993; first compound 0.253 µM
  relative viability: 0.576
NCI-H1993; first compound 0.8 µM
  relative viability: 0.521
NCI-H1993; first compound 2.53 µM
  relative viability: 0.61
SW 1573; first compound 0.08 µM
  relative viability: 0.611
SW 1573; first compound 0.8 µM
  relative viability: 0.702
SW 1573; first compound 2.53 µM
  relative viability: 0.613
NCI-H2126; first compound 0.08 µM
  relative viability: 0.617
NCI-H2126; first compound 0.253 µM
  relative viability: 0.602
NCI-H2126; first compound 0.8 µM
  relative viability: 0.599
NCI-H2126; first compound 2.53 µM
  relative viability: 0.551
HARA; first compound 0.08 µM
  relative viability: 0.551
HARA; first compound 0.8 µM
  relative viability: 0.515
HARA; first compound 2.53 µM
  relative viability: 0.497
EPLC-272H; first compound 0.08 µM
  relative viability: 0.41
EPLC-272H; first compound 0.253 µM
  relative viability: 0.304
EPLC-272H; first compound 0.8 µM
  relative viability: 0.366
EPLC-272H; first compound 2.53 µM
  relative viability: 0.394
